SMILES strings stand for the structures.

The assay deals with h Src (Homo sapiens, UniProt P12931). The assay is described as follows: LC3000 Src assay (off-chip incubation mobility-shift kinase assay, Caliper LabChip). It is filed as biochemical. The conditions noted are these: ATP at KM apparent. The protocol: The screening and profiling experiments described here were performed using Caliper Life Sciences' proprietary LabChip™ technology. Caliper LC3000 and EZ Reader II instruments are widely used throughout the drug discovery process for assay development, primary screening, selectivity screening, generation of Structure-Activity Relationships (SARs) and Mechanism of Action (MOA) studies. The LabChip™ technology is particularly well suited for enzymatic ‘targets’ such as kinases, proteases, phosphatases, histone deacetylases (HDAC), phosphodiesterases (PDE), and acyl-transferases. The key benefit of the technology is the separation and direct measurement of substrates and products, which allows for higher signal-to-noise ratios and fewer false positive/negative results. This direct measurement also allows for the identification and elimination of enzymatic activities that are not associated with the kinase reaction of interest.
h Src, sequence (P12931 whole entry): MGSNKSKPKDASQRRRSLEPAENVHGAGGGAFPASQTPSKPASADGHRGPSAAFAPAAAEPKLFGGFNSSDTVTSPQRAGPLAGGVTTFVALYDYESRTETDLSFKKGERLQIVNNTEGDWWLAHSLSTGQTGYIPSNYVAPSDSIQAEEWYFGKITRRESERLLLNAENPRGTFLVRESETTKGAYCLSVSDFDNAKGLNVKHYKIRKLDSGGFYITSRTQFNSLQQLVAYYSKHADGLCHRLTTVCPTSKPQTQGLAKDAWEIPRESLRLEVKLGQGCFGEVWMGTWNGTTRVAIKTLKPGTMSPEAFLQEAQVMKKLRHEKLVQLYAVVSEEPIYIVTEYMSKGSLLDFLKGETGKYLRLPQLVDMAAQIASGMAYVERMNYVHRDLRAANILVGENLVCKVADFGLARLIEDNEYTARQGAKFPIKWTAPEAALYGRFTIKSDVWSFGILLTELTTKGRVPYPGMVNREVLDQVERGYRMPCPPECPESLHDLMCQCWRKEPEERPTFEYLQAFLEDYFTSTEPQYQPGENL
The off-chip incubation mobility-shift kinase assay uses a microfluidic chip to measure the conversion of a fluorescent peptide substrate to a phosphorylated product. The reaction mixture, from a microtiter plate well, is introduced through a capillary sipper onto the chip, where the nonphosphorylated substrate and phosphorylated product are separated by electrophoresis and detected via laser-induced fluorescence. […] The phosphorylated product migrates through the chip faster than the non-phosphorylated substrate, and signals from the two forms of the peptide appear as distinct peaks. Caliper's data analysis software (HTSWA) determines peak heights, from which the ratio of product to the peak sum P/(P+S) and percent (%) conversion is calculated. This value is used to compare compound wells to control wells present on the plate, and thereby determine the % inhibition values for the compound. The formula used to calculate % inhibition is as follows, where C100% is the average % conversion of the 100% activity wells and C0% is the average % conversion of the 0% activity wells:
(1-(%conversionofsample—C0%)/(C100%−C0%))*100
Compounds were dissolved in 100% DMSO and diluted to 25× the final desired screening concentration. Serial dilutions were performed to obtain the concentrations specified for particular studies. One μl of each concentration was transferred, in duplicate, to a 384-well Greiner microtiter plate. Generally, 12 μL of enzyme buffer containing purified kinase (various suppliers), 100 mM HEPES, pH 7.5, 1 mM DTT (Calbiochem, 2333153), 10 mM MgCl2 (Sigma, M-1028) or 10 mM MnCl2 (Sigma, M-1787) (assay specific), and 0.002% Brij-35 (Sigma, B4184) was added to each well. Compound and enzyme were allowed to pre-incubate for 15 minutes. 12 μL of peptide/ATP buffer containing 100 mM HEPES, pH 7.5, 1.5 μM fluorescein-labeled peptide (specific to kinase of interest), ATP (at KM apparent, Sigma, A9187), and 0.002% Brij-35 was then added to each well to initiate the reaction. Generally, reactions were incubated for 1-1.5 hours at room temperature to obtain adequate (15-40%) conversion of peptide to phosphorylated product in the linear range of the reaction. Reactions were terminated with the addition of 45 μL of Stop Buffer (containing 20 mM EDTA). Plates were then read on the LabChip 3000 using a 12-sipper LabChip. % conversion values and % inhibition values were obtained as described and IC50 curves of compounds were generated using Graphpad Prism Version 4 or 5.01. A nonlinear curve fit using the sigmoidal dose response—variable slope fit was used to graph IC50 curves and determine IC50 values and hillslopes.
Regarding `Oc1ccc(Cl)c(-c2ccc3nc(Nc4cccnc4)ncc3c2)c1` [Compound 17, 4-Chloro-3-[2-(pyridin-3-ylamino)-quinazolin-6-yl]-phenol], the IC50 stood at 2 nM. On to `Oc1ccc(Cl)c(-c2ccc3nc(Nc4ccc5cc[nH]c5c4)nn3c2)c1` [Compound 18, 4-Chloro-3-[2-(1H-indol-6-ylamino)-[1,2,4]triazolo[1,5-a]pyridin-6-yl]-phenol], for which the IC50 worked out at 39 nM. The same measure for `Oc1ccc(Cl)c(-c2ccc3nc(Nc4ccnc(O)c4)nn3c2)c1` [Compound 19, 4-[6-(2-Chloro-5-hydroxy-phenyl)-[1,2,4]triazolo[1,5-a]pyridin-2-ylamino]-pyridin-2-ol]: 28 nM; for `COc1cc(Nc2nc3ccc(-c4cc(O)ccc4Cl)cn3n2)ccn1` [Compound 20, 4-Chloro-3-[2-(2-methoxy-pyridin-4-ylamino)-[1,2,4]triazolo[1,5-a]pyridin-6-yl]-phenol]: 6 nM. Regarding `OCc1cncc(Nc2ncc3cc(-c4cc(O)ccc4Cl)ccc3n2)c1` [Compound 21, 4-Chloro-3-[2-(5-hydroxymethyl-pyridin-3-ylamino)-quinazolin-6-yl]-phenol], the IC50 is 0.4 nM. The same measure for `Oc1ccc(Cl)c(-c2ccc3nc(Nc4cncc(OCCN5CCCC5)c4)nn3c2)c1` [Compound 26, 4-Chloro-3-{2-[5-(2-pyrrolidin-1-yl-ethoxy)-pyridin-3-ylamino]-[1,2,4]triazolo[1,5-a]pyridin-6-yl}-phenol]: 14 nM; for `COc1cc(Nc2nc3ccc(-c4cc(O)ccc4Cl)cn3n2)cc(OC)c1OC` [Compound 29, 4-Chloro-3-[2-(3,4,5-trimethoxy-phenylamino)-[1,2,4]triazolo[1,5-a]pyridin-6-yl]-phenol]: 2 nM. Next, `OCCn1cnc2ccc(Nc3nc4ccc(-c5cc(O)ccc5Cl)cn4n3)cc21` [Compound 30, 4-Chloro-3-{2-[3-(2-hydroxy-ethyl)-3H-benzoimidazol-5-ylamino]-[1,2,4]triazolo[1,5-a]pyridin-6-yl}-phenol]: 7 nM.

Take `Oc1ccc(Cl)c(-c2ccn3nc(Nc4cccnc4)nc3c2)c1` [Compound 31, 4-Chloro-3-[2-(pyridin-3-ylamino)-[1,2,4]triazolo[1,5-a]pyridin-7-yl]-phenol]: the IC50 was found to be 69 nM. Next, `Oc1ccc(Cl)c(-c2ccc3nc(Nc4ccnc(OCCN5CCCC5)c4)nn3c2)c1` [Compound 33, 4-Chloro-3-{2-[2-(2-pyrrolidin-1-yl-ethoxy)-pyridin-4-ylamino]-[1,2,4]triazolo[1,5-a]pyridin-6-yl}-phenol]: 29 nM; `OCc1cc(CO)cc(Nc2nc3cc(-c4cc(O)ccc4Cl)ccn3n2)c1` [Compound 34, 3-[2-(3,5-Bis-hydroxymethyl-phenylamino)-[1,2,4]triazolo[1,5-a]pyridin-7-yl]-4-chloro-phenol]: 9 nM. On to `OCc1ccc(Nc2nc3ccc(-c4cc(O)ccc4Cl)cn3n2)cc1CO` [Compound 35, 3-[2-(3,4-Bis-hydroxymethyl-phenylamino)-[1,2,4]triazolo[1,5-a]pyridin-6-yI]-4-chloro-phenol], for which the IC50 came to 34 nM.

On to `COc1cc(Nc2ncc3cc(-c4cc(O)ccc4Cl)ccc3n2)cc(OC)c1OC` [Compound 36, 4-Chloro-3-[2-(3,4,5-trimethoxy-phenylamino)-quinazolin-6-y]-phenol], for which the IC50 amounted to 0.5 nM. For `OCCN1CCN(c2cc(Nc3nc4ccc(-c5cc(O)ccc5Cl)cn4n3)ccn2)CC1` [Compound 38, 4-Chloro-3-(2-{2-[4-(2-hydroxy-ethyl)-piperazin-1-yl]-pyridin-4-ylamino}-[1,2,4]triazolo[1,5-a]pyridin-6-yl)-phenol], the IC50 came to 13 nM. As for `COc1cc2nc(Nc3ccc(OCCN4CCCC4)cc3)nn2cc1-c1cc(O)ccc1Cl` [Compound 39, 4-Chloro-3-{7-methoxy-2-[4-(2-pyrrolidin-1-yl-ethoxy)-phenylamino]-[1,2,4]triazolo[1,5-a]pyridin-6-yl}-phenol], the IC50 was 69 nM.

For the origin of these results see US20130123271A1, “HETEROCYCLIC COMPOUNDS, THEIR PREPARATION AND THERAPEUTIC APPLICATION” (FOVEA PHARMACEUTICALS, priority 2010, published 2013).
